Here are results for ten compounds from patent publication US20250066411A1, “GL[…] FOR L-SIGN” (priority 2022, published 2025).

Holding throughout (type): binding
Assay [1] deals with T1, L-SIGN ECD (Homo sapiens, UniProt Q9H2X3).
T1 construct: towards the extra cellular domain (ECD) of the DC-SIGN and L-SIGN receptors
T1 sequence (Q9H2X3 71-399 limits assumed): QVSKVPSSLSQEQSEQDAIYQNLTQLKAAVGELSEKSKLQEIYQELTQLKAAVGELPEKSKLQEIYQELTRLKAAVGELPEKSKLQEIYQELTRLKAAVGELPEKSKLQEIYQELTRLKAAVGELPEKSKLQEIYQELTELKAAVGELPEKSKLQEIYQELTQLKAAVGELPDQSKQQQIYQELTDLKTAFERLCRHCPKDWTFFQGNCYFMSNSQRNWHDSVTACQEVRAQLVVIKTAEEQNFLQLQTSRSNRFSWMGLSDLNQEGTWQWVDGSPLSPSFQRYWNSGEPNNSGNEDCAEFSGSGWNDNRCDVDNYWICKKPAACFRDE
Kind of assay: SPR competition experiments on a sensorchip functionalized with SARS-CoV-2 Spike protein, L-SIGN ECD co-injected. The settings on record: for IC50: 20 μM L-SIGN ECD co-injected, Spike HexaPro surface, 25° C., read-out: IC50 (inhibition of L-SIGN); for selectivity for L-SIGN over DC-SIGN: SPR competition, L-SIGN vs DC-SIGN ECD; for inhibits the L-SIGN receptor better than D-mannose: relative to D-mannose IC50.

For assay [2], the target named is T1, L-SIGN ECD. Kind of assay: SPR direct interaction experiments on oriented immobilized biotinylated ECD. The settings on record: read-out: apparent Kd for L-SIGN; Steady State Affinity model, ligands 2 nM to 500 nM. On the procedure: For this experiment the extracellular domain (ECD) of DC-SIGN and L-SIGN were immobilized onto the SPR surface in an oriented manner, by their N-terminus, taking advantage of biotine/streptavidin interaction. To generate DC/L SIGN specifically biotinylated at the N-terminus, 3 glycine residues at the N-terminus of the protein were added by site directed mutagenesis in order to allow a sortaging procedure. The biotinylated versions of DC/L-SIGN ECDs (Biot-ECDs) were prepared by sortaging as described in Achilli, S., Monteiro, J. T., Serna, S., Mayer-Lambertz, S., Thépaut, M., Le Roy, A., Ebel, C., Reichardt, N.-C., Lepenies, B., Fieschi, F., and Vives, C. (2020) […], Artificial Tetrameric Lectins: A Tool to Screen Ligand and Pathogen Interactions. IJMS 21, 1-19 using a commercial synthetic biotinylated peptide,
To generate the oriented SPR surfaces, the flow cells were functionalized with Streptavidin in 10 mM Acetate buffer pH 4 and the remaining activated groups were blocked with 1 M ethanolamine pH 8. After blocking, the flow cells were treated with 100 μL of 10 mM HCl to remove non-specifically bound proteins and 100 μL of 50 mM NaOH/1M NaCl to expose surface to regeneration protocol. Priming of the surface was done using the running buffer (25 mM Tris pH 8, 150 mM NaCl, 4 mM CaCl2), 0.05% Tween). […] Surfaces are ready for interaction. […]

In assay [3] the target is T1, L-SIGN ECD. Kind of assay: Isothermal Titration Calorimetry (ITC) with L-SIGN ECD. On the procedure: The interaction of compound 106a with the L-SIGN receptor was also confirmed by Isothermal Titration Calorimetry (ITC) experiments (FIG. 2).
These experiments were carried out on a MicroCal PEAQ-ITC apparatus, at 25° C., in buffer A (25 mM Tris pH 8, 150 mM NaCl, 4 mM CaCl2). L-SIGN ECD (172 μM) was titrated with consecutive 2 μL injections of a 2 mM solution of compound 106a in Calcium buffer (30 μL of 20 mM compound 106a+270 μL of Calcium buffer).
The analysis was performed in triplicate and the graphs shown in FIG. 2 (which report, respectively, Differential Power (DP) vs. time, and ΔH vs. molar ratio) are representative of the average of the three experiments.
Background: Isothermal titration calorimetry measures the heat released or taken up as one component is titrated into another.

For `OCC1O[C@H](OCCCl)C(n2cc(CNC3=NCCCN3)nn2)C(O)[C@@H]1O` (some centres unmarked) [Compound 139], on L-SIGN ECD [1], the IC50 (as a rule, the point on the concentration scale where inhibition reaches its midpoint) stood at 12 µM and the “selectivity for L-SIGN over DC-SIGN” value was “up to 94 fold”.

Turning to `N=C(N)NCc1cn(C2C(OCCn3cc(COCCOCCOCCn4cc(-c5cc(OCCOCCO)c(C#Cc6cc(OCCOCCO)c(C#Cc7cc(OCCOCCO)c(-c8cn(CCOCCOCCOCc9cn(CCOC%10OC(CO)C(O)C(O)C%10n%10cc(CNC(=N)N)nn%10)nn9)nn8)cc7OCCOCCO)cc6OCCOCCO)cc5OCCOCCO)nn4)nn3)OC(CO)C(O)C2O)nn1` (centres unmarked) [Compound 135], at L-SIGN ECD [2], the Kd came to 0.025 µM.

For the compound `OCC1O[C@H](OCCCl)C(n2cc(CNc3nc4ccccc4[nH]3)nn2)C(O)[C@@H]1O` (some centres unmarked) [Compound 113], on L-SIGN ECD [1], the IC50 amounted to 48 µM and the “selectivity for L-SIGN over DC-SIGN” value is “more selective against DC-SIGN”.

In the case of `OCC1O[C@H](OCCCl)C(n2cc(CNc3ncc[nH]3)nn2)C(O)[C@@H]1O` (some centres unmarked) [Compound 119], at L-SIGN ECD [1], the IC50 came to 18 µM and the “inhibits the L-SIGN receptor better than D-mannose” value was “over two orders of magnitude”.

For the compound `OCC1O[C@H](OCCCl)C(n2cc(CNc3ncc[nH]3)nn2)C(O)[C@@H]1O` (some centres unmarked) [Compound 115], on L-SIGN ECD [1], the 50% inhibitory concentration (IC50) amounted to 15 µM and the “selectivity for L-SIGN over DC-SIGN” value is recorded as “up to 75 fold”.

Turning to `O=C[C@@H](O)[C@@H](O)[C@H](O)[C@H](O)CO` [D-mannose, reference compound], the IC50 on L-SIGN ECD [1] is 1940 µM.

Consider `COc1ccc2[nH]c(NCc3cn(C4C(O)[C@H](O)C(CO)O[C@@H]4OCCCl)nn3)nc2c1` (some centres unmarked) [Compound 146], for which the IC50 at L-SIGN ECD [1] amounted to 52 µM.

On to `NCc1cn(C2C(OCCCl)OC(CO)C(O)C2O)nn1` (centres unmarked) [Compound 103, reference compound], for which the IC50 on L-SIGN ECD [1] stood at 278 µM.

In the case of `N=C(N)NCc1cn(C2C(OCCn3cc(-c4cc(OCCOCCO)c(C#Cc5cc(OCCOCCO)c(C#Cc6cc(OCCOCCO)c(-c7cn(CCOC8OC(CO)C(O)C(O)C8n8cc(CNC(=N)N)nn8)nn7)cc6OCCOCCO)cc5OCCOCCO)cc4OCCOCCO)nn3)OC(CO)C(O)C2O)nn1` (centres unmarked) [Compound 133], the Kd at L-SIGN ECD [2] stood at 0.052 µM.

In the case of `N=C(N)NCc1cn([C@H]2C(OCCCl)OC(CO)[C@@H](O)[C@@H]2O)nn1` (some centres unmarked) [Compound 106a], at L-SIGN ECD [1], the IC50 was determined as 24 µM, the “selectivity for L-SIGN over DC-SIGN” value was “up to 58 fold” and the “inhibits the L-SIGN receptor better than D-mannose” value amounted to 80 times. Moreover, the “inhibits the L-SIGN receptor better than compound 103” value at L-SIGN ECD [1] (relative to compound 103 IC50) is given as 11 times. Further, the Kd on L-SIGN ECD [3] is 12.8 ± 1.5 µM. Besides, on L-SIGN ECD [3] (ITC), the “enthalpy contribution (ΔH) of the interaction” value is listed as “very favorable”; the “stoichiometry of interaction between ligand and L-SIGN receptor” value is recorded as 1,13.
